Reference: patent US10654866B2, “Selective estrogen receptor degraders” (Eli Lilly and Company, priority 2018, dated 2020)
Where two headings read alike, the source gives them in different places.

Experiments:
[1] = test system: MCF7 ESR1 Y537N mutant cells; assay: Cell proliferation assay in MCF7-ESR1 Y537N-682; type: cell-based, human; conditions: seven days; read-out: Relative IC50 (μM) MCF7 ESR1 Y537N mutant cells
Procedure: (§1) Seed MCF7 (purchased from ATCC HTB-22) cells at a density of 2,000 cells per well in DMEM phenol red free media 10% FBS (20 μL volume) (charcoal stripped) into a clear bottom 384-well cell culture plate. Plate MCF7-ESRY537N-682 (generated by CRISPR/Cas9 gene editing of ESr1 gene in MCF7 cells, clone #682) in DMEM media supplemented with 10% FBS, and 1% penicillin/streptomycin antibiotics at a density of 1000 cells per well. Incubate the plates at 37° C. and 5% CO2. The following day dose the cells with the test compound. Use an Echo 555 acoustic dispenser to prepare test compound serial dilutions (1:3) in a range from 60 μM to 0.003 μM. Dose the cells with the addition of 5 μL from the serial dilution plate to the cell plate, producing a final DMSO concentration of 0.2% with a final test compound concentration dose range between 20 and 0.001 μM. For the maximum point use media containing 0.2% of DMSO and for the minimum point use fulvestrant diluted at 2 μM final concentrations in the growth media containing 0.2% DMSO. After dosing with the test compound, incubate the cell plates at 37° C. and 5% CO2. Seven days after test compound addition, remove the plates from the incubator and add cold EtOH 96% (65 μL) to each well. […] Seal the plates and incubate 1 hour at room temperature on the bench (preserved from light). Scan the plates with ACUMEN EXPLORER™ [Laser-scanning fluorescence microplate cytometer manufactured by TTP LABTECH LTD].

ERα = ERα (Homo sapiens (Human), UniProt P03372); assay: PRα inhibition (ERα functional antagonism) cell assay in MCF7 cells; type: cell-based; conditions: MCF7 cells pretreated with 0.47 nM estradiol, % PRα positive cells; read-out: Relative IC50
Chain of ERα (P03372 whole entry): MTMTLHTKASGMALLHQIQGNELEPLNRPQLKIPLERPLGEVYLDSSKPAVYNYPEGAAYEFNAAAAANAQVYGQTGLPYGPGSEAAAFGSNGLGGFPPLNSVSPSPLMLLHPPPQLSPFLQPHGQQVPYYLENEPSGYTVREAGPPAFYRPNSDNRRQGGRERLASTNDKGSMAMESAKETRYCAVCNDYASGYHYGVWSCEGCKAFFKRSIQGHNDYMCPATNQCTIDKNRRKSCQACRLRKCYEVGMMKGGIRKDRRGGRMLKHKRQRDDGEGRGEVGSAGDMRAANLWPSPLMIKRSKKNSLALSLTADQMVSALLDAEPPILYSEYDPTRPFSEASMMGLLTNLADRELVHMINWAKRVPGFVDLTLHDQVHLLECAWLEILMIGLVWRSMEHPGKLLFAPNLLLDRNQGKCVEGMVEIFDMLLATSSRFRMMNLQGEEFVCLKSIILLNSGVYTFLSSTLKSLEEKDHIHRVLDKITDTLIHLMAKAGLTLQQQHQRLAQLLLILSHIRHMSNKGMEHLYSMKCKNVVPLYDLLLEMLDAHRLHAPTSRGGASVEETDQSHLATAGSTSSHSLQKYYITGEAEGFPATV
Source text: The purpose of the following PRα inhibition (ERα functional antagonism) cell assay is to determine the antagonistic activity of a test compound against the ERα receptor. An antagonist in this assay is expected to block the function of the ERα receptor.
Carry out the assay conditions as detailed in the ERα degradation Cell base Acumen assay above, using the MCF7 cell line except that, prior to test compound dispensing, remove the media from the cell plate and pretreat all wells except for the negative control wells (column 24 of the plate) with assay media containing 0.47 nM estradiol for 30 minutes. In this assay, carry out immunostaining for the detection of PRα and scan the plates with ACUMEN EXPLORER™ [Laser-scanning fluorescence microplate cytometer manufactured by TTP LABTECH LTD] to measure PRα. Image analysis is based on cellular fluorescent signals for identifying positive cells. Identify PRα positive cells by mean intensity. Use total intensity at 575-640 from propidium iodide/DNA to identify individual cells. Assay output is % PRα positive cells. Determine the IC50 by curve fitting to a four parameter logistic for each output using GENE DATA™.

ERα (Y537S mutant) = ERα (Y537S mutant) (Homo sapiens (Human), UniProt P03372, Y537S); assay: ERα (Y537S mutant) competition binding assay; conditions: 3H-estradiol competition; Ki from IC50 by Cheng-Prusoff
Chain of ERα (Y537S mutant) (P03372 whole entry Y537S): as the sequence (P03372 whole entry) above, with Y537S counted along it
Procedure: (§2) Add the test compound at 10 different concentrations ranging from 10,000 nM to 0.5 nM, and determine nonspecific binding in the presence of 1 μM of 1713 estradiol. Incubate the binding reaction (140 μL) for 4 hours at room temperature, and then add cold dextran-charcoal buffer (70 μL) (containing per 50 mL of assay buffer, 0.75 g of charcoal and 0.25 g of dextran) to each reaction. Mix the plates for 8 minutes on an orbital shaker at 4° C. and then centrifuge at 3000 rpm at 4° C. for 10 minutes. Transfer an aliquot (120 μL) of the mixture to another 96-well, white flat bottom plate (Costar) and add Perkin Elmer Optiphase Supermix scintillation fluid (175 μL) to each well. Seal the plates and shake vigorously on an orbital shaker. After an incubation of 2.5 hours, read the plates in a Wallac Microbeta counter. […] Convert the IC50 values for the compound to Ki using Cheng-Prusoff equation.

MCF7 ESR1 wild type = assay: Cell proliferation assay in MCF7; type: cell-based, human; conditions: seven days, read-out: Relative IC50 (μM) MCF7 ESR1 wild type
Procedure: as §1

[2] = target: Y537N mutant ERα receptor (Homo sapiens, UniProt P03372, Y537N); assay: PRα inhibition (ERα functional antagonism) cell assay in MCF7-ESR1 Y537N 682 CRISPR cells; type: cell-based; conditions: MCF7 Y537N 682 CRISPR cells, 72 hours, % PR positive cells; read-out: Relative IC50
Procedure: An antagonist in this assay is expected to block the function of the ERα receptor.
Incubate the cells overnight in a cell culture incubator (5% CO2, 95% relative humidity and 37° C.) and allow the cells to attach to the plate. The following day dose the cells with the test compound. Use an Echo 555 acoustic dispenser to prepare compound serial dilutions (1:3) in a range from 6 μM to 0.0003 μM. Dose the cells with the addition of 5 μL from the serial dilution plate to the cell plate producing a final DMSO concentration of 0.2% with a final test compound concentration dose range between 2 and 0.0001 μM. For the maximum point use media containing 0.2% of DMSO and for the minimum point, use fulvestrant diluted at 2 μM final concentrations in the growth media containing 0.2% DMSO. After dosing with test compound, incubate the cell plates at 37° C. and 5% CO2 for 72 hours. Fix the cells by adding 14% para-formaldehyde (10 μL) for 30 minutes at room temperature. Wash the cells with PBS (1×20 μL) and incubate with PBS (20 μL) of containing 0.5% (v/v) TWEEN® 20 for 1 hour. Wash the cells with PBS (2×20 μL) 0.05% TWEEN® 20, and block with 3% BSA/PBS 0.05% TWEEN® 20, 0.1% TRITON™ X-100 (20 μL/well) for 1 hour at room temperature. Add 1:500 primary antibody (20 μL) (PR monoclonal mouse anti-human antibody, clone PgR 636 Dako, M3569) dilution in 1% BSA/PBS 0.05 TWEEN® 20 per well, seal the plates and incubate overnight at 4° C.
The following day, wash the cells with PBS […] (2×20 μL) and incubate with secondary antibody (20 μL/well) (1:1000 dilution, Goat anti-rabbit IgM ALEXA FLUOR™ 488) in PBS 1% BSA for 105 minutes at room temperature. […] Seal the plates and incubate 1 hour at room temperature on the bench (preserved from light). Scan the plates with ACUMEN EXPLORER™ [Laser-scanning fluorescence microplate cytometer manufactured by TTP LABTECH LTD] to measure PRα. Image analysis is based on cellular fluorescent signals for identifying positive cells. Identify PR positive cells by mean intensity. Use total intensity at 575-640 nm from propidium iodide/DNA to identify individual cells. Assay output is % PR positive cells. Determine the IC50 by curve fitting to a four parameter logistic for each output using GENE DATA™.

ERα (wild type) = ERα (wild type) (Homo sapiens (Human), UniProt P03372); assay: ERα (wild type) competition binding assay; conditions: 3H-estradiol competition; Ki from IC50 by Cheng-Prusoff
Chain of ERα (wild type) (P03372 whole entry): as the sequence (P03372 whole entry) above
Procedure: as §2

IC50 [1] [µM]	IC50 (ERα) [nM]	Ki (ERα (Y537S mutant)) [nM]	IC50 (MCF7 ESR1 wild type) [µM]	IC50 [2] [nM]	Ki (ERα (wild type)) [nM]	IC50 (MCF7 ESR1 wild type; Homo sapiens, MCF7, […]) [µM]	SMILES
0.662 ± 0.117	206	66.9	0.174	434 ± 195	9.33	–	Cc1cccc2c1OC(c1ccc(OCCN3CC(CF)C3)cc1)c1c-2cnc2cc(O)ccc12 (single isomer, unassigned) [Example 8A, 5-(4-{2-[3-(Fluoromethyl)azetidin-1-yl]ethoxy}phenyl)-7-methyl-5H-[1]benzopyrano[4,3-c]quinolin-2-ol]
0.0142 ± 0.0111	48.5 ± 29.4	5.44	0.00508	8.93 ± 3.83	0.94	–	Cc1cccc2c1OC(c1ccc(OCCN3CC(CF)C3)cc1)c1c-2cnc2cc(O)ccc12 (single isomer, unassigned) [Example 8B, 5-(4-{2-[3-(Fluoromethyl)azetidin-1-yl]ethoxy}phenyl)-7-methyl-5H-[1]benzopyrano[4,3-c]quinolin-2-ol]

The remaining lines, values behind:

SMILES	IC50 [1] [µM]	IC50 (ERα) [nM]	Ki (ERα (Y537S mutant)) [nM]	IC50 (MCF7 ESR1 wild type) [µM]	IC50 [2] [nM]	Ki (ERα (wild type)) [nM]	IC50 (MCF7 ESR1 wild type; Homo sapiens, MCF7, […]) [µM]
Oc1ccc2c3c(cnc2c1)-c1ccc(F)cc1OC3c1ccc(OCCN2CC(CF)C2)cc1 (single isomer, unassigned) [Example 5A, 8-Fluoro-5-(4-{2-[3-(fluoromethyl)azetidin-1-yl]ethoxy}phenyl)-5H-[1]benzopyrano[4,3-c]quinolin-2-ol]	0.517 ± 0.095	600	81.2	0.41	394	12.5	–
Oc1ccc2c3c(cnc2c1)-c1ccc(F)cc1OC3c1ccc(OCCN2CC(CF)C2)cc1 (single isomer, unassigned) [Example 5B, 8-Fluoro-5-(4-{2-[3-(fluoromethyl)azetidin-1-yl]ethoxy}phenyl)-5H-[1]benzopyrano[4,3-c]quinolin-2-ol]	0.0213 ± 0.013	32 ± 5.31	6.56	0.00767	18.2 ± 9.82	1.3	–
Oc1ccc2c3c(cnc2c1)-c1cccc(F)c1OC3c1ccc(OCCN2CC(CF)C2)cc1 (single isomer, unassigned) [Example 6A, 7-Fluoro-5-(4-{2-[3-(fluoromethyl)azetidin-1-yl]ethoxy}phenyl)-5H-[1]benzopyrano[4,3-c]quinolin-2-ol]	0.323 ± 0.176	253	46	–	236	8.53	0.0759
